Reference: US20240408081A1, “NOVEL SYNERGISTIC COMBINATIONS AND METHODS OF USE THEREOF FOR TREATING CANCERS” (UNIVERSITE DE BORDEAUX, priority 2021, published 2024)

Columns and labels:
[1] = test system: Huh6 and HepG2 cells; assay: Clonogenicity assay; type: cell-based, human; conditions: GSK-126 3 and 4 μM for Huh6 and HepG2; ATR 8 μM; SIM 4 μM; 10 days
Protocol: Huh6 and HepG2 cells were seeded at 500 and 1000 cells/well respectively in 12-well plates. After attachment, cells were treated with drugs.
Following incubation at 37° C. for 10 days, the cells were fixed with 4% PFA and stained with 0.05% crystal violet. Reading under the Fusion FX (Vilber Lourmat).

[2] = test system: Huh6 and HepG2 hepatoblastoma cells; assay: Growth and viability of hepatoblastoma cells (Huh6 and HepG2), 2D and 3D spheroid; type: cell-based, human
Protocol: (§1) For 2D culture, a total of 2,000 cells/well for Huh6 and 3,000 cells/well for HepG2 were seeded in 96-well microtiter plates. Cell growth was measured at 24 h, 48h, 72h or 96h after genetic manipulation and at 48h or 72h after drug treatment using the in vitro MTS assay Kit or Sulforhodamine B (SRB, Absorbance at 565 nm) assay (Sigma) following manufacturer's instructions. For 3D culture, spheroids were formed as described above and microplates were incubated in an IncuCyte® S3 live cell analysis system and scanned every 8 hours. For genetic manipulation, the lentiviral transductions or the gene depletions were done before the plating. For drug treatments, depending on the experiment and the drug, spheroids were treated at day 4 or 5 for 48h or 72h. Cell viability assay in spheroids was done using 1 μM calcein AM (BioLegend) and 2 μM ethidium homodimer 1 (Sigma) for 30 minutes at 37° C. Spheroids were imaged using an IncuCyte® S3 live cell analysis system. For all cell viability assays, drugs were used at half maximal inhibitory concentration (IC50).

[3] = test system: NEM157i, NEM163i and primary BXdmg1 cells; assay: DMG cell migration, wound scratch assay (IncuCyte); type: cell-based, human
Protocol: 2×10^4 cells/well were placed in a 96-well and incubated for 24h. An IncuCyte Wound Maker (96-pin wound making tool) was used to make scratches.
Migration was monitored by using the IncuCyte S3 live-cell analysis system (Essen BioScience, Ltd, Royston Hertfordshire, United Kingdom). […] Following functions have been used to optimize visibility of the cells: greyscale mode, bichrome mode, negative, contrast/luminosity, exposition/gamma, negative.

[4] = test system: NEM157i, SU-DIPG-IVi and NEM163i DMG cells; assay: Proliferation / cell viability assay (Sulforhodamine B) in DMG cell lines; type: cell-based, human; conditions: SU-DIPG-IVi and NEM157i; up to 30 μM; absence of GSK-126
Protocol: Cell growth was measured with the In vitro Toxicology Assay kit (Sulforhodamine B, Sigma Aldrich, Saint Quentin Fallavier, France) according to manufacturer's instructions. Cells were plated at a density of 2000 cells per well in 96-well plates in triplicates. Absorbance was measured at 565 nm using the CLARIOstar multiplate reader (BMG Labtech, Champigny-sur-Marne, France) at indicated time points.

[5] = test system: Huh6 cells; assay: Huh6 tumor xenografts in NSG mice; type: in vivo, NOD/LtSz-scid IL2R gamma null (NSG) mice; conditions: intraperitoneal; GSK-126 50 mg/kg, ATR 20 mg/kg 3-times a week; cisplatin 1 mg/kg twice a week
Protocol: NOD/LtSz-scid IL2R gamma null (NSG) mice were bred in standard conditions compliant with regulatory bodies (French government). Sterilized food and water were accessible ad libitum. One million of Huh6 cells in 50% of Matrigel were subcutaneously injected in a total volume of 100 μl in the right flank of 8- to 9-week-old female mice (26-32 g; APAFIS #32917-2021121316283534 v2, Agreement #B33063916, Ministère de l'Enseignement Supérieur, de la Recherche et de l'Innovation).
Tumor growth was monitored by caliper measurement until tumors reached an average volume of 250 mm3 (at day 12, see arrow). […] The vehicle (PBS with 5% DMSO) was injected 3-times a week. Tumor growth was monitored during 16 additional days until tumors control reached a size of 2000 mm3. Thus, all mice were euthanized. Blood was collected from all euthanatized mice and circulating ASAT, ALAT, creatinine, and urea were measured to evaluate the toxicity of the different treatments on the liver and kidneys.

[6] = test system: histone H3K27me3 in breast and prostate cancer cells; conditions: cited from earlier work
[7] = test system: HepG2 cells; assay: Cell viability assay (CellTiter 96 AQueous One / MTS) in HepG2; type: cell-based, human
Protocol: as §1

[8] = rat; cited from earlier work

CC(C)c1c(C(=O)Nc2ccccc2)c(-c2ccccc2)c(-c2ccc(F)cc2)n1CC[C@@H](O)C[C@@H](O)CC(=O)O [Atorvastatin]
proliferation and survival of hepatoblastoma cells (clonogenic cell assay) [1]: little effect | concentration with antitumor effect, statin alone ([2]; 72 h): ≥ 50 µM | migration compared to DMSO [3]: slowed | effect on DMG cell proliferation, inhibitor alone [4]: no effect | development of hepatoblastoma in mice (tumor volume) [5]: no effect

Cc1cc(C)c(CNC(=O)c2cc(-c3ccc(N4CCN(C)CC4)nc3)cc3c2cnn3C(C)C)c(=O)[nH]1 [GSK926, N-[(4,6-dimethyl-2-oxo-1H-pyridin-3-yl)methyl]-6-[6-(4-methylpiperazin-1-yl)pyridin-3-yl]-1-propan-2-ylindazole-4-carboxamide]
histone H3K27me3 level [6]: suppress

COCCNC(=O)Nc1ccc2nc(-c3cccs3)c(-c3cccs3)nc2c1 [ACSS2 inhibitor]
effect on DMG cell proliferation, inhibitor alone [4]: no effect

N.N.[Cl][Pt][Cl] [cisplatin]
IC50 [7]: 12 µM | development of hepatoblastoma in mice (tumor volume) [5]: impeded tumor growth

CCN(c1cc(-c2ccc(CN3CCOCC3)cc2)cc(C(=O)NCc2c(C)cc(C)[nH]c2=O)c1C)C1CCOCC1 [Tazemetostat, N-[(4,6-dimethyl-2-oxo-1H-pyridin-3-yl)methyl]-3-[ethyl(oxan-4-yl)amino]-2-methyl-5-[4-(morpholin-4-ylmethyl)phenyl]benzamide]
effective concentrations on growth of hepatoblastoma cells ([2]; 48 h): above 20 μM | sensitivity of hepatoblastoma cells in presence of Simvastatin or Atorvastatin ([2]; 72 h, 8 μM Atorvastatin or 4 μM Simvastatin): significantly potentiates

CCC(C)(C)C(=O)O[C@H]1C[C@@H](C)C=C2C=C[C@H](C)[C@H](CC[C@@H]3C[C@@H](O)CC(=O)O3)[C@H]21 [Simvastatin]
concentration with antitumor effect, statin alone ([2]; 72 h): ≥ 20 µM

CN(C/C=C/C#CC(C)(C)C)Cc1cccc2ccccc12 [Terbinafine]
effect on DMG cell proliferation, inhibitor alone [4]: no effect

CCCc1cc(C)[nH]c(=O)c1CNC(=O)c1cc(-c2ccnc(N3CCN(C)CC3)c2)cc2c1cnn2C(C)C [GSK343, N-[(6-methyl-2-oxo-4-propyl-1H-pyridin-3-yl)methyl]-6-[2-(4-methylpiperazin-1-yl)pyridin-4-yl]-1-propan-2-ylindazole-4-carboxamide]
histone H3K27me3 level [6]: suppress | clearance [8]: high clearance
